How the values were obtained:
[1] = test system: Human promyelocytic leukemia HL-60 cells; assay: Antiproliferation activity against HL-60 cells (MTT method); format: cell-based; settings: 48 hour incubation; for IC50: Homo sapiens, HL-60 cells, read-out: IC50, concentration at which 50% of the proliferation is inhibited
Method: Human promyelocytic leukemia HL-60 cells (ATCC CCL-240) were cultured at 37° C. in RPMI 1640 medium (Gibco) containing 10% of fetal calf serum (JRH Bioscience) which had been treated at 56° C. for 30 minutes, and suspended in the same medium at a concentration of 5000 cells/90 μl. Each 90 μl portion of the suspension was distributed into each well of a 96-well plate (Falcon). To the suspension in each well was added 10 μl of one the following samples, and incubated at 37° C. in the presence of 5% CO2. The samples were 2-, 4-, 8-, 16-, 32-, 64- or 128-dilutions of filter-sterilized 200 mM aqueous solution of the compound (2) obtained in Example 1, 50 mM aqueous solution of the compound (7), 50 mM aqueous solution of the compound (9), 100 mM aqueous solution of the compound (11), 100 mM aqueous solution of the compound (14), 20 mM aqueous solution of the compound (17), 12.5 mM aqueous solution of the compound (19) or 12.5 mM aqueous solution of the compound (21) with sterile water, as well as water. After 48 hour from the initiation of the incubation, the numbers of viable cells calculated based on the absorbance measured according to the MTT method as described in “Apoptosis Jikken Protocol” (Syuzyun-sha, Seiichi Tanuma, ed., pp. 156 (1994)) were compared each other.

[2] = test system: heme oxygenase 1 protein in RAW264.7 cells; assay: Heme oxygenase 1 induction (Western blot); format: cell-based; parameters: key: − represents no band observed; increase in the intensity of the band is represented as follows: +−<+<++; increase in the intensity of the band is represented as follows: +−<+<++; increase in the intensity of the band is represented as follows: +−<+<++; settings: 12 hours
Method: RAW264.7 cells (ATCC TIB 71) were suspended in Dulbecco's modified Eagle's medium (Bio Whittaker, 12-604F) containing 10% fetal calf serum (Gibco) at a concentration of 3×10^5 cells/ml. 5 ml of the suspension was added to each well of a 6-well microtiter plate and the plate was incubated at 37° C. overnight in the presence of 5% CO2. 50 μl of a solution containing the compound (11) or the compound (14) at a concentration of 10 mM or 5 mM in water, 5 μl of a solution containing the compound (7) at a concentration of 50 mM or 25 mM in dimethyl sulfoxide, or 5 μl of a solution containing the compound (17) at a concentration of 100 mM or 50 mM in dimethyl sulfoxide was added to the well. The plate was incubated for 12 hours. A positive control for heme oxygenase 1 induction in which 5 μl of 3 mM solution of 15-deoxy-Δ12,14 prostaglandin J2 (Cayman Chemical, 18570) in dimethyl sulfoxide was added, and a negative control in which water was added were provided. The cells were recovered by detaching the cells from the plate using a scraper and suspended in 0.1 M tris-HCl buffer (pH 7.5) containing 0.05 mM pepstatin A (Sigma, P5318), 0.2 mM leupeptin (Sigma, L2884), 1 mM phenylmethylsulfonyl fluoride (Nacalai Tesque, 273-27), 10 mM ethylenediaminetetraacetic acid disodium salt and 0.1% Triton X-100. A supernatant obtained by centrifuging the suspension after freezing and thawing was used as a protein fraction. The content of protein in the protein fraction was determined using Micro BCA Protein Assay Reagent (a product of Pierce sold by Takara Shuzo, P7411). A sample from the protein fraction prepared as described above was mixed with an equal volume of 0.125 M tris-hydrochloride buffer (pH 6.8) containing 4% sodium lauryl sulfate (SDS), 2% 2-mercaptoethanol, 0.001% Bromophenol Blue and 20% glycerol. After treatment at 100° C. for 5 minutes, a portion corresponding to 10 μg of protein was loaded on 12.5% SDS-polyacrylamide gel and electrophoresed at a constant current of 20 mA. After electrophoresis, the gel was transferred to a PVDF membrane (Millipore, IPVH000 10) at a constant voltage of 15 V for 25 minutes using a blotting buffer (containing 48 mM tris, 39 mM glycine, 20% methanol and 0.0375% SDS) and Trans-Blot SD Cell Semi-Dry blotting apparatus (Bio-Rad) according to the attached protocol. After transferring, the PVDF membrane was blocked in a solution of Block Ace (Dainippon Pharmaceutical, UK-B25) at 4 C overnight. After blocking, the membrane washed three times in phosphate buffered saline containing 0.1% Tween 20 for 15 minutes with gentle shaking. The membrane was reacted in phosphate buffered saline containing 10% Block Ace, 0.1% Tween 20 and 200 ng/ml of anti-heme oxygenase 1 antibody (N-19; Santa Cruz, sc-7696) at room temperature for 1 hour with gentle shaking, and then washed three times in phosphate buffered saline containing 0.1% Tween 20 for 15 minutes with gentle shaking. The membrane was reacted in phosphate buffered saline containing 10% Block Ace, 0.1% Tween 20 and 0.1% peroxidase-labeled rabbit anti-goat IgG (H+L) antibody (Zymed, 61-1620) at room temperature for 1 hour with gentle shaking, and then washed five times in phosphate buffered saline containing 0.1% Tween 20 for 15 minutes with gentle shaking. The PVDF membrane was stained using Western Blot Chemiluminescence Reagent Plus (a product of NEN Life Science Products sold by Daiichi Pure Chemicals, NEL103) according to the attached protocol and exposed to an X-ray film (Kodak, CAT165 1454). After exposure, the film was developed using FPM800 (Fuji Film).
The intensity of the band depended on the concentration of the sample. In the table, the intensity of the band for heme oxygenase 1 protein is expressed by the mark +. Specifically, − represents no band observed, and increase in the intensity of the band is represented as follows: +−<+<++.

IC50 [1] [µM]	SMILES	antiproliferation activity against HL-60 cells [1]	Intensity of band for heme oxygenase 1 protein ([2]; final concentration of 25 μM)	Intensity of band for heme oxygenase 1 protein ([2]; final concentration of 50 μM)	Intensity of band for heme oxygenase 1 protein ([2]; final concentration of 100 μM)
104	O=C[C@H](O)[C@H]1OC[C@@H](O)[C@@H]1OC(=O)c1ccccc1 [Compound (7), 4-O-benzoyl-3,6-anhydro-D-galactose]	exhibited antiproliferation activities	+	+	–
113	OCC1OC(OC2C(CO)OC(OC3C(CO)OC(OC4C(O)COC4C(O)C(O)O)C(O)C3O)C(O)C2O)C(O)C(O)C1O [Compound (14), 4-O-β-maltotoriosyl-3,6-anhydro-D-galactose]	exhibited antiproliferation activities	–	+	+ +
205	O=C[C@H](O)[C@H]1OC[C@@H](O)[C@@H]1OCc1ccccc1 [Compound (17), 4-O-benzyl-3,6-anhydro-D-galactose]	exhibited antiproliferation activities	–	+	+ +

— patent US6518302B1, “Remedies” (Takara Shuzo Co., Ltd., priority 1999, dated 2003)
